Laboratory results from PubChem BioAssay (NCI).
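Where inhibition never reached the appropriate level, the endpoint shown equals the highest concentration tested. Otherwise, values were interpolated linearly from a five-concentration, 48-hour dose response in 96-well plates. GI50 = concentration required for 50% inhibition of growth. TGI denotes the concentration required for complete inhibition of growth.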

Experiments:
Assay in all cases: NCI tumour cell line growth inhibition, 48 h
COLO 205 colon = tested on: COLO 205 colon
MCF7 breast = tested on: MCF7 breast
MOLT-4 leukemia = tested on: MOLT-4 leukemia
SNB-75 CNS = tested on: SNB-75 CNS
SR leukemia = tested on: SR leukemia
UACC-257 melanoma = tested on: UACC-257 melanoma
UACC-62 melanoma = tested on: UACC-62 melanoma
EKVX NSCLC = tested on: EKVX NSCLC

`COc1ccc(-c2cc(/C=C/C(=O)c3ccc(OC)c(OC)c3)[nH]n2)cc1` gave a GI50 (COLO 205 colon) of 1.76 µM, a TGI (COLO 205 colon) of 3.3 µM and a GI50 (MCF7 breast) of 0.417 µM. It also gave a TGI (MCF7 breast) of 1.76 µM, a GI50 (MOLT-4 leukemia) of 2.67 µM and a TGI (MOLT-4 leukemia) of 8 µM. It also gave a GI50 (SNB-75 CNS) of 1.55 µM, a TGI (SNB-75 CNS) of 3.84 µM and a GI50 (SR leukemia) of 0.677 µM. For the same compound, the TGI (SR leukemia) was 3.74 µM, the GI50 (UACC-257 melanoma) was 1.73 µM and the TGI (UACC-257 melanoma) was 3.65 µM. It also gave a GI50 (UACC-62 melanoma) of 1.65 µM and a TGI (UACC-62 melanoma) of 3.35 µM.
Work on `CN(C)CCSc1cc(-c2ccccc2)c2ccccc2n1` yielded a TGI (COLO 205 colon) of 4.85 µM, a TGI (EKVX NSCLC) of 30.3 µM and a TGI (MCF7 breast) of 27.8 µM. It also gave a TGI (SR leukemia) of over 100 µM, a TGI (UACC-257 melanoma) of 24.8 µM and a TGI (UACC-62 melanoma) of 9.45 µM.
In the case of `COC(=O)c1ccc(-c2c(C#N)[n+](=O)c3cc(Cl)c(Cl)cc3n2[O-])cc1`, the GI50 (COLO 205 colon) was 22 µM, the TGI (COLO 205 colon) was 52.1 µM and the GI50 (EKVX NSCLC) was 21.7 µM. The TGI (EKVX NSCLC) was 47.8 µM, the GI50 (MCF7 breast) was 19.2 µM and the TGI (MCF7 breast) was 42.1 µM. The GI50 (MOLT-4 leukemia) was 1.18 µM, the TGI (MOLT-4 leukemia) was 2.96 µM and the GI50 (SNB-75 CNS) was 20.2 µM. It also gave a TGI (SNB-75 CNS) of 39.8 µM, a GI50 (UACC-257 melanoma) of 21.5 µM and a TGI (UACC-257 melanoma) of 50.1 µM. For the same compound, the GI50 (UACC-62 melanoma) was 15.3 µM and the TGI (UACC-62 melanoma) was 31.7 µM.
In the case of `CC(C)OC(=O)[C@H](C)NP(=O)(OC[C@H]1O[C@@H](n2ccc(=O)[nH]c2=O)[C@](C)(F)[C@@H]1O)Oc1ccccc1` (stereo partly specified), the GI50 (EKVX NSCLC) was over 100 µM, the TGI (EKVX NSCLC) was over 100 µM and the GI50 (MCF7 breast) was over 100 µM. The TGI (MCF7 breast) was over 100 µM, the GI50 (MOLT-4 leukemia) was over 100 µM and the TGI (MOLT-4 leukemia) was over 100 µM. The GI50 (SNB-75 CNS) was over 100 µM, the TGI (SNB-75 CNS) was over 100 µM and the GI50 (SR leukemia) was over 100 µM. It also gave a TGI (SR leukemia) of over 100 µM, a GI50 (UACC-257 melanoma) of over 100 µM and a TGI (UACC-257 melanoma) of over 100 µM. It also gave a GI50 (UACC-62 melanoma) of over 100 µM and a TGI (UACC-62 melanoma) of over 100 µM.
Work on `Cn1cc(-c2csc(-c3c[nH]c4ccc(Br)cc34)n2)c2cnccc21` yielded a GI50 (EKVX NSCLC) of 2.5 µM, a TGI (EKVX NSCLC) of 6.37 µM and a GI50 (MCF7 breast) of 1.77 µM. It also gave a TGI (MCF7 breast) of 3.71 µM.
In the case of `COc1ccc(/C(=C\C=C(C#N)C#N)Sc2nc3ccccc3s2)cc1`, the GI50 (COLO 205 colon) was 7.24 µM, the TGI (COLO 205 colon) was 17.4 µM and the GI50 (EKVX NSCLC) was 10.5 µM. For the same compound, the TGI (EKVX NSCLC) was 22 µM, the GI50 (MCF7 breast) was 2.26 µM and the TGI (MCF7 breast) was 17.9 µM. For the same compound, the GI50 (UACC-257 melanoma) was 10.3 µM, the TGI (UACC-257 melanoma) was 23.7 µM and the GI50 (UACC-62 melanoma) was 8.63 µM. The TGI (UACC-62 melanoma) was 18.7 µM.
In the case of `COC(=O)c1cc2c(s1)-c1nccc3c1c(nc1ccccc13)C2=O`, the GI50 (COLO 205 colon) was 50.2 µM, the TGI (COLO 205 colon) was over 100 µM and the GI50 (EKVX NSCLC) was over 100 µM. It also gave a TGI (EKVX NSCLC) of over 100 µM, a GI50 (MCF7 breast) of 26.1 µM and a TGI (MCF7 breast) of over 100 µM. The GI50 (MOLT-4 leukemia) was over 100 µM, the TGI (MOLT-4 leukemia) was over 100 µM and the GI50 (UACC-257 melanoma) was 32 µM. The TGI (UACC-257 melanoma) was over 100 µM, the GI50 (UACC-62 melanoma) was over 100 µM and the TGI (UACC-62 melanoma) was over 100 µM.
For `C#Cc1nc(Nc2cc(C)[nH]n2)c2ccccc2n1`, the GI50 (COLO 205 colon) was 0.279 µM, the TGI (COLO 205 colon) was 0.674 µM and the GI50 (MCF7 breast) was 0.197 µM. For the same compound, the TGI (MCF7 breast) was 1.67 µM, the GI50 (MOLT-4 leukemia) was 0.25 µM and the TGI (MOLT-4 leukemia) was 0.685 µM. It also gave a GI50 (SNB-75 CNS) of 0.167 µM, a TGI (SNB-75 CNS) of 0.513 µM and a GI50 (SR leukemia) of 0.226 µM. The TGI (SR leukemia) was 0.79 µM, the GI50 (UACC-257 melanoma) was 0.2 µM and the TGI (UACC-257 melanoma) was 0.631 µM. The GI50 (UACC-62 melanoma) was 0.165 µM and the TGI (UACC-62 melanoma) was 0.332 µM.
`S=c1[nH]c2c(Cl)c(Cl)c(Cl)c(Cl)c2[nH]1` was tested, and the TGI (COLO 205 colon) was 32.3 µM, the TGI (EKVX NSCLC) was 37.4 µM and the TGI (MCF7 breast) was 40.5 µM. It also gave a TGI (MOLT-4 leukemia) of 78 µM, a TGI (UACC-257 melanoma) of 46.4 µM and a TGI (UACC-62 melanoma) of 33.3 µM.
For `CCCCCCCN=C(N)c1ccc(N2CCN(c3ccc(C(N)=NCCCCCCC)cc3)CC2)cc1`, the GI50 (COLO 205 colon) was 1.54 µM, the TGI (COLO 205 colon) was over 52.6 µM and the GI50 (EKVX NSCLC) was 0.175 µM. It also gave a TGI (EKVX NSCLC) of 2.94 µM, a GI50 (MCF7 breast) of 0.208 µM and a GI50 (MOLT-4 leukemia) of 2.71 µM. The TGI (MOLT-4 leukemia) was over 100 µM, the GI50 (SNB-75 CNS) was 2.75 µM and the TGI (SNB-75 CNS) was 7.67 µM. It also gave a GI50 (UACC-257 melanoma) of 1.24 µM, a TGI (UACC-257 melanoma) of 4.39 µM and a GI50 (UACC-62 melanoma) of 0.346 µM.
